Laboratory results taken from patent publication US20250332173A1, “COMPOUNDS AND METHODS FOR MODULATING NUCLEIC ACID SPLICING” (REMIX THERAPEUTICS INC., priority 2021, published 2025).
pIC50: −log10 of the molar value.

Experiments:
SMN2 mRNA = assay: RT-qPCR splicing assay, SMN2 canonical junction (CJ) mRNA; type: cell-based, human; conditions: Homo sapiens; Table 5 panel; canonical junction qPCR; compound concentration having 50% response in CJ decrease; read-out: SMN2 IC50 (decrease in CJ mRNA levels)
Outline: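 Canonical-junction transcript levels in compound-treated A673 or K562 cells (24 h, up to 10 uM final) were determined from lysates by RT-qPCR with housekeeping-gene normalization.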

HTT = assay: HiBiT protein abundance assay, HTT HiBiT K562 cell line; type: cell-based, human; conditions: HiBiT K562 cell line, 24 hours, top dose 10 μM; read-out: Effect on protein abundance, HTT (IC50 category)
Outline: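 Tagged-protein abundance measured by split-NanoBiT luminescence after lysis, following 24 h compound exposure (37° C; 10 μM top, 3-fold, 10 points; DMSO ≤0.25%) of HiBiT knock-in K562 cells. Percent response vs DMSO and unmodified-cell controls; 4-parameter logistic interpolation at 50% gave IC50.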

Row | pIC50 (SMN2 mRNA) | pIC50 (HTT) | SMILES
1 | > 7.00 | 5.00 to 6.00 | Cc1cn2cc(-c3cc(F)c4c(=O)n([C@H]5CCNC[C@H]5F)cnc4c3)cc(F)c2n1 [Compound 338]
2 | 6.00 to 7.00 | < 5.00 | Cc1cn2cc(-c3cc(F)c4c(=O)n(C5CCNCC5(F)F)cnc4c3)cc(F)c2n1 (centres unmarked) [Compound 339]
3 | > 7.00 | 6.00 to 7.00 | Cc1cn2cc(-c3cc(F)c4c(=O)n(N5CCNCC5)cnc4c3)cc(F)c2n1 [Compound 340, 5-fluoro-7-{8-fluoro-2-methylimidazo[1,2-a]pyridin-6-yl}-3-(piperazin-1-yl)quinazolin-4-one]
4 | > 7.00 | 6.00 to 7.00 | Cc1cn2cc(-c3cc(F)c4c(=O)n(C5=CCNCC5)cnc4c3)cc(F)c2n1 [Compound 342]
5 | > 7.00 | < 5.00 | Cc1cn2nc(-c3cc(N(C)C)c4c(=O)n(C5CCNC6(CC6)C5)cnc4c3)cc(C)c2n1 (centres unmarked) [Compound 345]
6 | > 7.00 | 6.00 to 7.00 | Cc1cn2cc(-c3cc(F)c4c(=O)n([C@H]5CCN[C@H](C)C5)cnc4c3)cc(F)c2n1 [Compound 346, trans-5-fluoro-7-(8-fluoro-2-methylimidazo[1,2-a]pyridin-6-yl)-3-(2-methylpiperidin-4-yl)quina-zolin-4(3H)-one]
7 | < 5.00 | < 5.00 | Cc1cn2cc(-c3cc(F)c4c(=O)n([C@H]5CCNC[C@@H]5O)cnc4c3)cc(F)c2n1 [Compound 347, 5-fluoro-7-{8-fluoro-2-methylimidazo[1,2-a]pyridin-6-yl}-3-[(3S,4S)-3-hydroxypiperidin-4-yl]quinazolin-4-one]
8 | < 5.00 | < 5.00 | Cc1cn2cc(-c3cc(F)c4c(=O)n([C@H]5CNCC[C@@H]5O)cnc4c3)cc(F)c2n1 [Compound 348, 5-fluoro-7-{8-fluoro-2-methylimidazo[1,2-a]pyridin-6-yl}-3-[(3S,4S)-4-hydroxypiperidin-3-yl]quinazolin-4-one]
9 | > 7.00 | 6.00 to 7.00 | Cc1cn2nc(-c3ccc4c(=O)n([C@H]5CCNC6(CC6)C5)cnc4c3)cc(C)c2n1 [Compound 349, 3-[(7S)-4-azaspiro[2.5]octan-7-yl]-7-{2,8-dimethylimidazo[1,2-b]pyridazin-6-yl}quinazolin-4-one]
10 | > 7.00 | 6.00 to 7.00 | Cc1cn2nc(-c3ccc4c(=O)n([C@@H]5CCNC6(CC6)C5)cnc4c3)cc(C)c2n1 [Compound 350, 3-[(7R)-4-azaspiro[2.5]octan-7-yl]-7-{2,8-dimethylimidazo[1,2-b]pyridazin-6-yl}quinazolin-4-one]
11 | > 7.00 | > 7.00 | Cc1cn2nc(-c3cc(F)c4c(=O)n(C5CCNC6(CC6)C5)cnc4c3)cc(C)c2n1 (centres unmarked) [Compound 351]
12 | < 5.00 | < 5.00 | Cc1cn2cc(-c3cc(F)c4c(=O)n(C5CNCCC5=O)cnc4c3)cc(F)c2n1 (centres unmarked) [Compound 352, 5-fluoro-7-{8-fluoro-2-methylimidazo[1,2-a]pyridin-6-yl}-3-(4-oxopiperidin-3-yl)quinazolin-4-one]
13 | > 7.00 | 6.00 to 7.00 | Cc1cn2cc(-c3cc(F)c4c(=O)n(C5CCCNCC5)cnc4c3)cc(F)c2n1 (centres unmarked) [Compound 353, 3-(azepan-4-yl)-5-fluoro-7-{8-fluoro-2-methylimidazo[1,2-a]pyridin-6-yl}quinazolin-4-one]
14 | 5.00 to 6.00 | 5.00 to 6.00 | Cc1ncc(-c2ccc3c(=O)n(C4CCNCC4)cnc3c2)cn1 [Compound 354, 7-(2-methylpyrimidin-5-yl)-3-(piperidin-4-yl)quinazolin-4(3H)-one]
15 | > 7.00 | > 7.00 | Cc1cn2nc(-c3cc(C)c4c(=O)n(C5CCNCC5)cnc4c3)cc(C)c2n1 [Compound 355]
16 | > 7.00 | > 7.00 | Cc1cn2nc(-c3cc(F)c4c(=O)n([C@@H]5CCNC6(CC6)C5)cnc4c3)cc(C)c2n1 [Compound 356]
17 | 6.00 to 7.00 | 5.00 to 6.00 | CNc1cc(-c2cc(F)c3nc(C)cn3c2)cc2ncn(C3CCNCC3)c(=O)c12 [Compound 358, 7-{8-fluoro-2-methylimidazo[1,2-a]pyridine-6-yl}-5-(methylamino)-3-(piperidin-4-yl)quinazolin-4-one]
18 | > 7.00 | 6.00 to 7.00 | CNc1cc(-c2cc(C)c3nc(C)cn3n2)cc2ncn(C3CCNCC3)c(=O)c12 [Compound 359, 7-{2,8-dimethylimidazo[1,2-b]pyridazin-6-yl}-5-(methylamino)-3-(piperidin-4-yl)quinazolin-4-one]
19 | 5.00 to 6.00 | < 5.00 | CNc1cc(-c2cn3cc(C)nc3c(C)n2)cc2ncn(C3CCNCC3)c(=O)c12 [Compound 360, 7-{2,8-dimethylimidazo[1,2-a]pyrazine-6-yl}-5-(methylamino)-3-(piperidin-4-yl)quinazolin-4-one]
20 | > 7.00 | > 7.00 | Cc1cc(-c2cc(F)c3c(=O)n(C4CCNC5(CC5)C4)cnc3c2)nc2cn(C)nc12 (centres unmarked) [Compound 361, 3-{4-azaspiro[2.5]octan-7-yl}-7-{2,7-dimethylpyrazolo[4,3-b]pyridin-5-yl}-5-fluoroquinazolin-4-one]
21 | 6.00 to 7.00 | < 5.00 | Cc1cn2nc(-c3cc(O)c4c(=O)n(C5CCNC5)cnc4c3)cc(C)c2n1 (centres unmarked) [Compound 362, 7-{2,8-dimethylimidazo[1,2-b]pyridazin-6-yl}-5-hydroxy-3-(pyrrolidin-3-yl)quinazolin-4-one]
22 | 5.00 to 6.00 | < 5.00 | CNc1cc(-c2cc(C#N)c3nc(C)cn3c2)cc2ncn(C3CCNCC3)c(=O)c12 [Compound 363, 2-methyl-6-[5-(methylamino)-4-oxo-3-(piperidin-4-yl)quinazolin-7-yl]imidazo[1,2-a]pyridine-8-carbonitrile]
